Like-named read-outs stand apart in the source and are kept apart here.
Tests used:
[1] = molecular target: T1, p210^bcr-abl (Homo sapiens, UniProt P00519); test: Inhibition of in vitro auto-phosphorylation of p210^bcr-abl, immune-complex kinase assay; format: biochemical; conditions: immune complex kinase assay, 3 experiments, read-out: Enzyme Assays IC50 (μM) p210bcl-abl in vitro phosphorylation
T1 construct: immune complexes containing ^32P-labeled p210^bcr-abl were collected on protein Sepharose beads; BCR (N-terminal part of the breakpoint cluster region protein, natural fusion partner); endogenous in cells; host or cells: K562 cells (lysate, immunoprecipitated on Protein A-Sepharose); the other entry of the earlier key: BCR (P11274, Breakpoint cluster region protein)
How it was run: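 p210^bcr-abl immunoprecipitated from K562 cell lysates, then incubated with compounds in 20 mM PIPES (pH 7.0)–20 mM MnCl2. Autophosphorylation started with […], 20 min at 30 °C, read by 4-20% SDS-PAGE and autoradiography.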

[2] = system: MDA-MB-231; test: Hollow fiber assay in mice, MDA-MB-231; format: in vivo, human; conditions: QD X 4, Day 4; for % T/C MDA-MB-231 IP: IP fibers; for % T/C MDA-MB-231 SC: SC fibers
Procedure: (§1) Compounds satisfying Formulas 1 and 2 also have been tested for in vivo activity in the hollow fiber assay. See Example 12 below for the procedure used for the in vivo tests. Each compound tested was tested against a minimum of 12 human cancer cell lines. Data is reported as % T/C (i.e., the […]) for each of the 2 compound doses against each of the cell lines with separate values calculated for the intraperitoneal and subcutaneous samples, with a target value for % T/C being about 50 or less.
(§2) Compounds were selected for further in vivo testing in standard subcutaneous xenograft models on the basis of several hollow fiber assay criteria. These criteria include: (1) a % T/C of 50 or less in 10 of the 48 possible test combinations (12 cell lines×2 sites×2 compound doses); (2) activity at a distance (intrapentoneal drug/subcutaneous culture) in a minimum of 4 of the 24 possible combinations; and/or (3) a net cell kill of 1 or more cell lines in either implant site. To simplify evaluation, a point system has been adopted which allows rapid assessment of a compound's activity. A value of 2 is assigned for each compound dose which results in a 50% or greater reduction in viable cell mass. The intraperitoneal and subcutaneous samples were scored separately so that criteria (1) and (2) could be evaluated. Compounds with a combined IP+SC score≧20, an SC score≧8, or a net cell kill of one or more cell lines were referred for xenograft testing. These criteria have been statistically validated by comparing the activity outcomes of greater than 80 randomly selected compounds in the hollow fiber assay and in the xenograft testing.
(§3) This example describes the method used for in vivo testing of mice. Human cancer cells were cultivated in polyvinylidene fluoride (PVDF) hollow fibers. A sample of each cancer cell line was implanted intraperitoneally and subcutaneously in mice. Each mouse received a total of 6 fibers, 3 intraperitoneally and 3 subcutaneously, representing 3 distinct cancer cell lines. Three mice were treated with compounds made according to the present invention at each of two test doses intraperitoneally using a QD×4 treatment schedule. […] Anticancer effects were assessed by determining viable cell mass for each of the coil line using a formazan dye (MTT) conversion assay. From this, the % TIC was calculated using the average optical density of the compound-treated samples divided by the average optical density of the vehicle controls. In addition, the net increase in cell mass was determined for each sample as samples of fiber cultures were assessed for viable cell mass on the day of implantation into mice. This allowed cytostatic and cytocidal capacities of these compounds to be assessed.

[3] = system: U251; test: Hollow fiber assay in mice, U251; format: in vivo, human; conditions: QD X 4, Day 4; for % T/C U251 IP: IP fibers; for % T/C U251 SC: SC fibers
Procedure: as §1, §2, §3

T1 sequence (P00519 with tags, fused parts or gaps): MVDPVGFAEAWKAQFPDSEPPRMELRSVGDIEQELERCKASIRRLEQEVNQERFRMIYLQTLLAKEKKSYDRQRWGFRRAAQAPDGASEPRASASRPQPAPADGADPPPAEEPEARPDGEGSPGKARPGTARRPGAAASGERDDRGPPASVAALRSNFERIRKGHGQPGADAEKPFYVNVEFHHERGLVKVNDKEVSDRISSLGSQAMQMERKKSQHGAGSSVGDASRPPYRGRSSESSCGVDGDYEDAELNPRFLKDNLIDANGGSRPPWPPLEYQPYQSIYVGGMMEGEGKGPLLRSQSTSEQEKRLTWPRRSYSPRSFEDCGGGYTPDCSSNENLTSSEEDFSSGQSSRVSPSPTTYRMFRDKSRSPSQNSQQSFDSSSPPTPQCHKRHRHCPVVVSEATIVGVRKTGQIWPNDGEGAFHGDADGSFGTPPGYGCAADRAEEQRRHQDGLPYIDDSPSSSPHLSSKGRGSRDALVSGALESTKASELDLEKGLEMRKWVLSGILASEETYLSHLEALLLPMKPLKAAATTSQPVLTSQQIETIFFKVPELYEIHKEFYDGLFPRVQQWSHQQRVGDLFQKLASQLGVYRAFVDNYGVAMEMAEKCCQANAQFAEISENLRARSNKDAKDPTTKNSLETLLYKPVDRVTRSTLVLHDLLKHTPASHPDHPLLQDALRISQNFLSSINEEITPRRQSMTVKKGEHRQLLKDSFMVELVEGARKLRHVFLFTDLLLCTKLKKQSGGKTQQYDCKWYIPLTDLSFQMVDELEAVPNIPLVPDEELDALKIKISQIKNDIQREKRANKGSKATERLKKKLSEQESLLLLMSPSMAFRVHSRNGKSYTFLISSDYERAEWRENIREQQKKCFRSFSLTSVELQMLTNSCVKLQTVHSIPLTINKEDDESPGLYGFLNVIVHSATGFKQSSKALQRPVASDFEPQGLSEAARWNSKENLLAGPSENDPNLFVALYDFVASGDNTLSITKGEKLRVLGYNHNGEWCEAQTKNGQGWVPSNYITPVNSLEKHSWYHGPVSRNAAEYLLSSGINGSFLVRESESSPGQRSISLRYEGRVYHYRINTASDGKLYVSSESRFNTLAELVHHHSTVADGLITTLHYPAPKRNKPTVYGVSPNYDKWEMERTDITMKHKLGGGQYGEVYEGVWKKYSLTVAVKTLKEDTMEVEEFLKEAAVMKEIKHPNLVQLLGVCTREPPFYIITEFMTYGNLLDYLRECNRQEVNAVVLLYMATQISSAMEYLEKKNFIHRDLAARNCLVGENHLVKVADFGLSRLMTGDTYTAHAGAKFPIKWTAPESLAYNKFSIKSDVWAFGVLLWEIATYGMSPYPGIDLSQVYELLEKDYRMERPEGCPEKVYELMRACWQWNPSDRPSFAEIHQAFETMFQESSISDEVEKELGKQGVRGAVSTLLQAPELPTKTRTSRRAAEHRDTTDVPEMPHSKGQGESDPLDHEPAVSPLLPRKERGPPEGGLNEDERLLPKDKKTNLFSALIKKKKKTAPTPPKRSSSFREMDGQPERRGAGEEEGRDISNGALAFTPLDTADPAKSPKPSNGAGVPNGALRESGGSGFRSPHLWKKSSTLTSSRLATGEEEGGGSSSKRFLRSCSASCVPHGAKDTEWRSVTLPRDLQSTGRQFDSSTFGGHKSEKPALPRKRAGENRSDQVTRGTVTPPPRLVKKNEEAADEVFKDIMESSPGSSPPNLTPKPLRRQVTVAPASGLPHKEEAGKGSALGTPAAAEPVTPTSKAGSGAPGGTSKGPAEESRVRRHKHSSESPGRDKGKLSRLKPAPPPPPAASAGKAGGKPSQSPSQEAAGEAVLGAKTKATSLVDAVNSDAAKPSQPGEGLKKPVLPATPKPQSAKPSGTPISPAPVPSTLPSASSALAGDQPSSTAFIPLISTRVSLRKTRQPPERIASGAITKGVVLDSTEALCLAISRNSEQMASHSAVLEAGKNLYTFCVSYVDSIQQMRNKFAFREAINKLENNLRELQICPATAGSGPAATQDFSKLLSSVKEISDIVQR

Structure (SMILES)	IC50 ([1]; Table 10, mean ± S.E.) [µM]	IC50 ([1]; Table 8, mean+S.E.) [µM]	further results
COC(=O)c1ccc(/C=C/C2=CC(=O)C=CC2=O)cc1 [COOCH3 / 2,5-quinoyl / CH═CH / H]	5.47 ± 0.22	–	–
CC(C)OC(=O)c1ccc(CCC2=CC(=O)C=CC2=O)cc1 [COOCH(CH3)2 / 2,5-quinoyl / CH2—CH2 / H]	5.26 ± 2.09	–	–
CC(C)C(OC(=O)c1ccc(NCC2=CC(=O)C=CC2=O)cc1)C(C)C [COOCH[CH(CH3)2]2 / H / 2,5-quinoyl]	–	–	IC50 ([1]; Table 9, mean ± S.E.): 34 ± 9.02 µM
CC(C)OC(=O)c1ccc(NCc2cc(O)ccc2O)cc1 [COOCH(CH3)2 / H / H]	–	4.45	–
O=C(OC12CC3CC(CC(C3)C1)C2)c1ccc(NCc2cc(O)ccc2O)cc1 [Compound 6, 4′-adamantylbenzoate-1′-N-2,5-dihydroxybenzylamine]	–	13.6	% T/C MDA-MB-231 IP ([2]; 33.50 mg/kg/dose IP): >100%; % T/C MDA-MB-231 IP ([2]; 50.00 mg/kg/dose IP): >100%; % T/C MDA-MB-231 SC ([2]; 33.50 mg/kg/dose IP): 67%; % T/C MDA-MB-231 SC ([2]; 50.00 mg/kg/dose IP): 92%; % T/C U251 IP ([3]; 33.50 mg/kg/dose IP): 100%; % T/C U251 IP ([3]; 50.00 mg/kg/dose IP): >100%; % T/C U251 SC ([3]; 33.50 mg/kg/dose IP): >100%; % T/C U251 SC ([3]; 50.00 mg/kg/dose IP): >100%
CC(C)C(OC(=O)c1ccc(NCc2cc(O)ccc2O)cc1)C(C)C [COOCH[CH(CH3)2]2 / H / H]	–	11.1	–
CC(C)OC(=O)c1ccc(NCc2cc(O)ccc2O)cc1Cl [COOCH(CH3)2 / Cl / H, 5′-chloro-4′-isopropylbenzoate-1′-N-2,5-dihydroxybenzylamine]	–	1.22	–
O=C(OCc1ccccc1)c1ccc(NCc2cc(O)ccc2O)cc1 [COOCH2Ph / H / H]	–	36.6	–
CC(C)OC(=O)c1ccc(CCC2=CC(=O)C(Br)=CC2=O)cc1	4.19 ± 0.07	–	–
COC(=O)c1ccc(C=Cc2cc(O)ccc2O)cc1 [COOCH3 / 2,5-dihydoxyphenyl / CH═CH / H]	19.9 ± 9.94	–	–
CC(C)(C)OC(=O)c1ccc(NCc2cc(O)ccc2O)cc1 [COOC(CH3)3 / H / H, 4′-t-butylbenzoate-1′-N-2,5-dihydroxybenzylamine]	–	7.72	–
O=C(OCC12CC3CC(CC(C3)C1)C2)c1ccc(NCc2cc(O)ccc2O)cc1 [Compound 7, 4′-4′-adamantylmethylbenzoate-1′-N-2,5-dihydroxybenzylamine]	–	12.6	–
COC(=O)c1ccc(CCC2=CC(=O)C(Br)=CC2=O)cc1	3.52 ± 0.16	–	–
COC(=O)c1ccc(CCc2cc(O)c(Br)cc2O)cc1	4.42 ± 0.24	–	–
